pIC50: −log10 of the molar value.
Each compound was assayed against T1, PRMT5/MEP50 (Homo sapiens, UniProt O14744) (assay: PRMT5 Biochemical Assay (PRMT5/MEP50 enzyme assay on peptide substrate, 3H-SAM Flashplate)).
T1 construct: Flag-PRMT5; 6His-MEP50
In short: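 FLAG-PRMT5/His-MEP50 from Sf9 cells (4 nM) preincubated 30 min at 25 °C with compound in 20 mM Bicine pH 7.6, 1 mM TCEP, 1% DMSO. Reaction started with 75 nM 3H-SAM on 40 nM biotinylated H4 1-15 peptide, stopped with cold SAM. Bound 3H-peptide counted on streptavidin Flashplates, normalised to DMSO and 100 uM SAH controls.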

T1 sequence (O14744 with tags, fused parts or gaps): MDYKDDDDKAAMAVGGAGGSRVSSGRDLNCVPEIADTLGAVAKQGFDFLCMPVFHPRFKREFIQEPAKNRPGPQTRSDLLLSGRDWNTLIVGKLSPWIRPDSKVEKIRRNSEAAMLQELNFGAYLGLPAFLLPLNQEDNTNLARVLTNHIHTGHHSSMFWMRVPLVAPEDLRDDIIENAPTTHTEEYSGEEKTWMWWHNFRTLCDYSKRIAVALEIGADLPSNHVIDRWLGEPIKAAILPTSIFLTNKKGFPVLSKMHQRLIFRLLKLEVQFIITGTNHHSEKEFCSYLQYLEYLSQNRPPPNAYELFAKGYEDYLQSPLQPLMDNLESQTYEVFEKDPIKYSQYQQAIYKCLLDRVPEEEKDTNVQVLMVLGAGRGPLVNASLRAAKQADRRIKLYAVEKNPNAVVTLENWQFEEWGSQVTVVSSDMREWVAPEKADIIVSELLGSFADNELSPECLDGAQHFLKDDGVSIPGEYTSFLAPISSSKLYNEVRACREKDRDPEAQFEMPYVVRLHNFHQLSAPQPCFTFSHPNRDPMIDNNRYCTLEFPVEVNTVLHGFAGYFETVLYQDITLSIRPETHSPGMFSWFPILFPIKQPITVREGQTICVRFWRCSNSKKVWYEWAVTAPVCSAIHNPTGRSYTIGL
T1 sequence (Q9BQA1 with tags, fused parts or gaps partner): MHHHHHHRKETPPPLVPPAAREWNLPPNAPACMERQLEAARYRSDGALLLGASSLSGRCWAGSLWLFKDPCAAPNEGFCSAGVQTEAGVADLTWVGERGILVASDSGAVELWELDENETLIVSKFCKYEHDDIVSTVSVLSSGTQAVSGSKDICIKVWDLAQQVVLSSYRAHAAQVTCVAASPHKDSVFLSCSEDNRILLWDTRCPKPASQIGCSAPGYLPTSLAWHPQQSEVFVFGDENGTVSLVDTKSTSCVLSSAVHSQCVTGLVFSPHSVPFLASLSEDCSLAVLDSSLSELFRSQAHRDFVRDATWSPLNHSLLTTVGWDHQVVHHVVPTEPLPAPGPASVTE

Structure (SMILES)	pIC50
OC(COCc1ccc(Cl)cc1Cl)CN1CCc2ccccc2C1 (stereo not shown) [Compound 281]	5.00 to 6.00
OC(COCc1ccccn1)CN1CCc2ccccc2C1 (stereo not shown) [Compound 282]	4.40 to 5.00
OC(COCc1cccnc1)CN1CCc2ccccc2C1 (stereo not shown) [Compound 283]	4.40 to 5.00
OC(COCc1ccncc1)CN1CCc2ccccc2C1 (stereo not shown) [Compound 284]	4.40 to 5.00
OC(COc1ccc2c(c1)OCO2)CN1CCc2ccccc2C1 (stereo not shown) [Compound 285]	5.00 to 6.00
CC(C)(C)OC(=O)N1CCC(OCC(O)CN2CCc3ccccc3C2)C1 (stereo not shown) [Compound 287]	5.00 to 6.00
COc1cccc(COCC(O)CN2CCc3ccccc3C2)c1 (stereo not shown) [Compound 288]	5.00 to 6.00
CC(C)(C)OC(=O)N1CC(OCC(O)CN2CCc3ccccc3C2)C1 (stereo not shown) [Compound 290]	5.00 to 6.00
CC(C)(C)OC(=O)N1CCCC(OCC(O)CN2CCc3ccccc3C2)C1 (stereo not shown) [Compound 291]	5.00 to 6.00
CC(C)(C)OC(=O)N1CCC(OCC(O)CN2CCc3ccccc3C2)CC1 (stereo not shown) [Compound 292]	5.00 to 6.00
OC(COCC1CCCCC1)CN1CCc2ccccc2C1 (stereo not shown) [Compound 294]	5.00 to 6.00
CC(OCC(O)CN1CCc2ccccc2C1)c1cccnc1 (stereo not shown) [Compound 299]	4.40 to 5.00
OC(COC1Cc2ccccc2C1)CN1CCc2ccccc2C1 (stereo not shown) [Compound 301]	5.00 to 6.00
OC(COC1CCCC1)CN1CCc2ccccc2C1 (stereo not shown) [Compound 302]	5.00 to 6.00
OC(COCC1CC1)CN1CCc2ccccc2C1 (stereo not shown) [Compound 303]	5.00 to 6.00
OC(COCC1CCCO1)CN1CCc2ccccc2C1 (stereo not shown) [Compound 305]	4.40 to 5.00
OC(COCc1ccccc1)CN1CCc2ccccc2C1 (stereo not shown) [Compound 308]	4.40 to 5.00
OC(COC1CCCCCC1)CN1CCc2ccccc2C1 (stereo not shown) [Compound 309]	5.00 to 6.00
OC(COC1CCOCC1)CN1CCc2ccccc2C1 (stereo not shown) [Compound 310]	4.40 to 5.00
CC(=O)N1CC(Nc2cc(CNCC(O)CN3CCc4ccccc4C3)ncn2)C1 (stereo not shown) [Compound 311]	< 5.00
CC(=O)N1CCC(Nc2cc(CNCC(O)CN3CCc4ccccc4C3)ncn2)CC1 (stereo not shown) [Compound 312]	< 5.00
CC(=O)N1CCC(Nc2cc(CNCC(O)CN3CCc4ccccc4C3)ccn2)CC1 (stereo not shown) [Compound 313]	< 5.00

Continued, values first:

pIC50	Structure (SMILES)
5.00 to 6.00	CN(C(=O)c1cccnc1)c1cccc(OCC(O)CN2CCc3ccccc3C2)c1 (stereo not shown) [Compound 204]
6.00 to 7.00	Cn1ncc2ccc(-c3cc(NCC(O)CN4CCc5ccccc5C4)ncn3)cc21 (stereo not shown) [Compound 205]
5.00 to 6.00	CNC(=O)Cn1ccc2cnc(-c3cccc(OCC(O)CN4CCc5ccccc5C4)c3)nc21 (stereo not shown) [Compound 206]
6.00 to 7.00	Cn1cnc2ccc(-c3cc(NCC(O)CN4CCc5ccccc5C4)ncn3)cc21 (stereo not shown) [Compound 207]
5.00 to 6.00	Cn1cnc2ccc(-c3cccc(OCC(O)CN4CCc5ccccc5C4(C)C)c3)cc21 (stereo not shown) [Compound 211]
5.00 to 6.00	Cc1ccc2c(c1)CN(CC(O)COc1cccc(-c3ccc4ncn(C)c4c3)c1)CC2 (stereo not shown) [Compound 212]
5.00 to 6.00	Cc1cccc2c1CCN(CC(O)COc1cccc(-c3ccc4ncn(C)c4c3)c1)C2 (stereo not shown) [Compound 213]
5.00 to 6.00	Cn1cnc2ccc(-c3cccc(OCC(O)CN4CCc5ccc(Cl)cc5C4)c3)cc21 (stereo not shown) [Compound 214]
5.00 to 6.00	Cn1cnc2ccc(-c3cccc(OCC(O)CN4CCc5c(Cl)cccc5C4)c3)cc21 (stereo not shown) [Compound 215]
6.00 to 7.00	Cn1ncc2c1CN(c1cccc(OCC(O)CN3CCc4ccccc4C3)c1)CC2 (stereo not shown) [Compound 216, 1-(3,4-dihydroisoquinolin-2(1H)-yl)-3-(3-(1-methyl-4,5-dihydro-1H-pyrazolo[3,4-c]pyridin-6(7H)-yl)phenoxy)propan-2-ol]
6.00 to 7.00	Cn1cnc2ccc(-c3cc(NCC(O)CN4CCc5ccccc5C4)ccn3)cc21 (stereo not shown) [Compound 217]
6.00 to 7.00	O=C(Cn1ccc2cnc(-c3cccc(OCC(O)CN4CCc5ccccc5C4)c3)nc21)N1CCOCC1 (stereo not shown) [Compound 222]
6.00 to 7.00	Cn1cc2ccc(-c3cc(NCC(O)CN4CCc5ccccc5C4)ncn3)cc2n1 (stereo not shown) [Compound 224]
6.00 to 7.00	CC(=O)N1CCC(n2cnc3ccc(-c4cccc(OCC(O)CN5CCc6ccccc6C5)c4)cc32)CC1 (stereo not shown) [Compound 228, 1-(4-(6-(3-(3-(3,4-dihydroisoquinolin-2(1H)-yl)-2-hydroxypropoxy)phenyl)-1H-benzo[d]imidazol-1-yl)piperidin-1-yl)ethanone]
6.00 to 7.00	O=C(Cn1ccc2cnc(-c3cccc(OCC(O)CN4CCc5ccccc5C4)c3)nc21)N1CCCC1 (stereo not shown) [Compound 231]
6.00 to 7.00	O=C(Cn1ccc2cnc(-c3cccc(OCC(O)CN4CCc5ccccc5C4)c3)nc21)N1CCCCC1 (stereo not shown) [Compound 232]
6.00 to 7.00	Cn1ccc2ccc(-c3cc(NCC(O)CN4CCc5ccccc5C4)ncn3)cc21 (stereo not shown) [Compound 237]

pIC50	Structure (SMILES)
6.00 to 7.00	CC(=O)N1CCC(n2cnc3ccc(-c4ccnc(NCC(O)CN5CCc6ccccc6C5)c4)cc32)CC1 (stereo not shown) [Compound 242]
6.00 to 7.00	CC(=O)N1CCC(n2cnc3cnc(-c4cccc(OCC(O)CN5CCc6ccccc6C5)c4)nc32)CC1 (stereo not shown) [Compound 243]
6.00 to 7.00	CN1CCN(C(=O)Cn2ccc3cnc(-c4cccc(OCC(O)CN5CCc6ccccc6C5)c4)nc32)CC1 (stereo not shown) [Compound 244]
6.00 to 7.00	Cn1ncc2cnc(-c3cccc(OCC(O)CN4CCc5ccccc5C4)c3)cc21 (stereo not shown) [Compound 248, 1-(3,4-dihydroisoquinolin-2(1H)-yl)-3-(3-(1-methyl-1H-pyrazolo[4,3-c]pyridin-6-yl)phenoxy)propan-2-ol]
6.00 to 7.00	O=C(Cn1cnc2ccc(-c3cccc(OCC(O)CN4CCc5ccccc5C4)c3)cc21)N1CCCCC1 (stereo not shown) [Compound 249]
6.00 to 7.00	O=C(Cn1cnc2ccc(-c3cccc(OCC(O)CN4CCc5ccccc5C4)c3)cc21)N1CCCC1 (stereo not shown) [Compound 263]
6.00 to 7.00	O=C(Nc1ccccn1)c1cccc(OCC(O)CN2CCc3ccccc3C2)c1 (stereo not shown) [Compound 267]
5.00 to 6.00	O=C(Nc1cccnc1)c1cccc(OCC(O)CN2CCc3ccccc3C2)c1 (stereo not shown) [Compound 268]
6.00 to 7.00	CN1CCN(C(=O)Cn2cnc3ccc(-c4cccc(OCC(O)CN5CCc6ccccc6C5)c4)cc32)CC1 (stereo not shown) [Compound 270]
6.00 to 7.00	Cn1cnc2ccc(-c3cc(NCC(O)CN4CCc5ccccc5C4)n[nH]3)cc21 (stereo not shown) [Compound 271, 1-(3,4-dihydroisoquinolin-2(1H)-yl)-3-((5-(1-methyl-1H-benzo[d]imidazol-6-yl)-1H-pyrazol-3-yl)amino)propan-2-ol]
6.00 to 7.00	Cn1cnc2cc(-c3cc(NCC(O)CN4CCc5ccccc5C4)n[nH]3)ccc21 (stereo not shown) [Compound 272, 1-(3,4-dihydroisoquinolin-2(1H)-yl)-3-((5-(1-methyl-1H-benzo[d]imidazol-5-yl)-1H-pyrazol-3-yl)amino)propan-2-ol]
5.00 to 6.00	O=C(Nc1cc[nH]n1)c1cccc(OCC(O)CN2CCc3ccccc3C2)c1 (stereo not shown) [Compound 274]
5.00 to 6.00	COc1c(COCC(O)CN2CCc3ccccc3C2)ccc2ccccc12 (stereo not shown) [Compound 279]
5.00 to 6.00	OC(COCc1c(Cl)cccc1Cl)CN1CCc2ccccc2C1 (stereo not shown) [Compound 280]
6.00 to 7.00	CCCCNCc1cccc(COCC(O)CN2CCc3ccccc3C2)c1 (stereo not shown) [Compound 286]
6.00 to 7.00	OC(COCC1COc2ccccc2O1)CN1CCc2ccccc2C1 (stereo not shown) [Compound 300]

Source: patent US20180298010A1, “PRMT5 INHIBITORS AND USES THEREOF” (Epizyme, Inc., priority 2012, published 2018)
